Reference: patent US20210161997A1, “TREATING DISEASES VIA TARGETED MODULATION OF GENE SIGNALING NETWORKS” (Camp4 Therapeutics Corporation, priority 2018, published 2021)
Where a name gives a salt, the structure may show the parent alone.

Legend:
Type in all cases: cell-based
MECP2 mRNA [1] = test: MECP2 mRNA in primary human hepatocytes (donor 1, donor 2); conditions: average fold change; for Human hep donor-1 MECP2 (Avg_FC) 1 uM / Human hep donor-1 MECP2 (Avg_FC) 10 uM: human hepatocytes donor-1; for Human hep donor-1 MECP2 (Avg_FC) 1 uM / Human hep donor-2 MECP2 (Avg_FC) 1 uM: compound 1 uM; for Human hep donor-1 MECP2 (Avg_FC) 10 uM / Human hep donor-2 MECP2 (Avg_FC) 10 uM: compound 10 uM; for Human hep donor-2 MECP2 (Avg_FC) 1 uM / Human hep donor-2 MECP2 (Avg_FC) 10 uM: human hepatocytes donor-2
Protocol: (§1) Human hepatocytes were obtained from two donors from Massachusetts General Hospital, namely MGH54 and MGH63, and one donor from Lonza, namely HUM4111B. Cryopreserved hepatocytes were cultured in plating media for 16 hours, transferred to maintenance media for 4 hours. Cultured on serum-free media for 2 hours, then a compound was added. The hepatocytes were maintained on the serum-free media for 16 hours prior to gene expression analysis. Primary human hepatocytes were stored in the vapor phase of a liquid nitrogen freezer (about −130° C.).
(§2) Human hepatocytes cultured as described above were plated in 24-well format, adding 375,000 cells per well in a volume of 500 ul plating medium. Four hours before treatment, cells were washed with PBS and the medium was changed to either: fresh maintenance medium (complete) or modified maintenance medium.
(§3) Compound stocks were prepared at 1000× final concentration and added in a 2-step dilution to the medium to reduce risk of a compound precipitating out of solution when added to the cells, and to ensure reasonable pipetting volumes. One at a time, each compound was first diluted 10-fold in warm (about 37° C.) modified maintenance medium (initial dilution=ID), mixed by vortexing, and the ID was diluted 100-fold into the cell culture (e.g. 5.1 ul into 1 well of a 24-well plate containing 0.5 mL medium). The plate was mixed by carefully swirling and after all wells were treated and returned to the incubator overnight. If desired, separate plates/wells were treated with vehicle-only controls and/or positive controls. If using multi-well plates, controls were included on each plate. After about 18 hours, cells were harvested for further analysis, e.g., ChIP-seq, RNA-seq, ATAC-seq, etc.
Samples were amplified using Taqman probes from ThermoFisher.

MECP2 mRNA [2] = test: MECP2 mRNA in stellate cells; conditions: average fold change; for Stellate MECP2 (Avg_FC) 1 uM: compound 1 uM; for Stellate MECP2 (Avg_FC) 10 uM: compound 10 uM
ANGPTL3 = test: RNA-seq of ANGPTL3 expression in compound-treated primary human hepatocytes; conditions: additional compounds (Table 13), linear fold change
Protocol: as §1, §2, §3
(§4) This protocol is a modified version of the following protocols: MagMAX mirVana Total RNA Isolation Kit User Guide (Applied Biosystems #MAN0011131 Rev B.0), NEBNext Poly(A) mRNA Magnetic Isolation Module (E7490), and NEBNext Ultra Directional RNA Library Prep Kit for Illumina (E7420) (New England Biosystems #E74901).
(§5) The MagMAX mirVana kit instructions (the section titled “Isolate RNA from cells” on pages 14-17) were used for isolation of total RNA from cells in culture. Two hundred μl of Lysis Binding Mix was used per well of the multiwell plate containing adherent cells (usually a 24-well plate).
(§6) For mRNA isolation and library prep, the NEBNext Poly(A) mRNA Magnetic Isolation Module and Directional Prep kit was used. RNA isolated from cells above was quantified, and prepared in […] of each sample in 50 μl of nuclease-free water. This protocol may be run in microfuge tubes or in a 96-well plate.
All pass filter reads from each sample were mapped against the human genome (assembly GRCh38/GCA_000001405.15 “no alt” analysis set merged with hs38d1/GCA_000786075.2) using two pass mapping via STAR version 2.5.3a (alignment parameters alignIntronMin=20; alignIntronMax=1000000; outFilterMismatchNmax=999; outFilterMismatchNoverLmax=0.05; outFilterType=BySJout; outFilterMultimapNmax=20; alignSJoverhangMin=8; alignSJDBoverhangMin=1; alignMatesGapMax=1000000) (Dobin et al., Bioinformatics (2012) 29(1):15-21). Genomic alignments were converted to transcriptome alignments based on reference transcript annotations from the Human GENCODE Gene Set release 24 (Harrow et al., Genome Res. (2012) 22(9): 1760-1774). Using unique and multimapped transcriptomic alignments, gene-level abundance estimates were computed using RSEM version 1.3.0 (Li and Dewey, BMC Bioinformatics (2011) 12:323) in a strand-aware manner, and including confidence interval sampling calculations, to arrive at posterior mean estimates (PME) of abundances (counts and normalized FPKM—fragments per kilobase of exon per million mapped fragments) from the underlying Bayesian model. Standard QC were applied (read integrity, mapping statistics, library complexity, fragment bias) to remove unsatisfactory samples.

UGT1A1 = test: RNA-seq of UGT1A1 expression in compound-treated primary human hepatocytes
Protocol: as §1, §2, §3, §4, §5, §6
Standard QC were applied (read integrity, mapping statistics, library complexity, fragment bias) to remove unsatisfactory samples. […] Log 2 fold change and significance values were computed using PME count data (with replicates explicitly modeled versus pan-experiment controls), median ratio normalized, using maximum likelihood estimation rather than maximum a posteriori, and disabling the use of Cook's distance cutoff when determining acceptable adjusted p-values. […] RNA-seq signals were also normalized by read depth and visualized using the UCSC browser.
To identify small molecules that modulate target gene expression, primary human hepatocytes were prepared as a monoculture, and at least one small molecule compound was applied to the cells.
RNA-seq was performed to determine the effects of the compounds on the expression of the target genes in hepatocytes. Fold change was calculated by dividing the level of expression in the cell system that had been perturbed by the level of expression in an unperturbed system. Changes in expression having a p-value ≤0.05 were considered significant.
Significance was defined as an FPKM ≥1, a log 2(fold change) ≥0.5, and a q-value of ≤0.05 for all targets except for CPOX.

| Molecule | Human hep donor-1 MECP2 (Avg_FC) 1 uM (MECP2 mRNA [1]) | Human hep donor-1 MECP2 (Avg_FC) 10 uM (MECP2 mRNA [1]) | Stellate MECP2 (Avg_FC) 1 uM (MECP2 mRNA [2]) | Stellate MECP2 (Avg_FC) 10 uM (MECP2 mRNA [2]) | Human hep donor-2 MECP2 (Avg_FC) 1 uM (MECP2 mRNA [1]) | Human hep donor-2 MECP2 (Avg_FC) 10 uM (MECP2 mRNA [1]) | ANGPTL3-LINEAR FOLD CHANGE (ANGPTL3) | UGT1A1 Fold Change (Log2) (UGT1A1) |
| --- | --- | --- | --- | --- | --- | --- | --- | --- |
| C=CCNC1=C2C[C@@H](C)C[C@H](OC)[C@H](O)[C@@H](C)/C=C(\C)[C@H](OC(N)=O)[C@@H](OC)/C=C\C=C(/C)C(=O)NC(=CC1=O)C2=O [17-AAG (Tanespimycin)/KOS-953] | 1.63 | 2.80 | 2.43 | 2.21 | – | – | – | – |
| CCOc1ccn(-c2ccc(F)cc2)c(=O)c1C(=O)Nc1ccc(Oc2ccnc(N)c2Cl)c(F)c1 [BMS 777607] | – | – | 0.97 | 1.92 | 1.35 | 3.04 | – | – |
| c1cc(OCCN2CCCCC2)cc(-c2n[nH]c3ccc(-c4nc[nH]n4)cc23)c1 [CC-401 hydrochloride] | 1.84 | 2.03 | 1.92 | 2.69 | – | – | – | – |
| COc1cccc(-c2cc(F)ccc2[C@H]2Cc3nc(N)nc(C)c3C(=O)N2)n1 [HSP-990] | 2.54 | 2.72 | 1.98 | 1.99 | 1.27 | 1.66 | – | – |
| CC(C)n1nc(-c2ccc3oc(N)nc3c2)c2c(N)ncnc21 [INK-128] | – | – | 1.33 | 2.42 | 2.16 | 2.52 | – | – |
| NC(=O)c1ccc(I)c([N+](=O)[O-])c1 [Iniparib (BSI-201)] | 2.28 | 2.15 | 2.39 | 2.26 | – | – | – | – |
| CN(C)C[C@@H]1CCn2cc(c3ccccc32)C2=C(C(=O)NC2=O)c2cn(c3ccccc23)CCO1.Cl [LY333531 HCl] | 1.44 | 2.14 | 1.26 | 2.15 | – | – | – | – |
| O=C1NC(=O)C(c2cnc3ccccn23)=C1c1cn2c3c(cc(F)cc13)CN(C(=O)N1CCCCC1)CC2 [LY2090314] | 2.43 | 1.94 | 2.65 | 2.20 | – | – | 0.1895 | – |
| Cc1ccc(F)c(NC(=O)Nc2ccc(-c3cccc4[nH]nc(N)c34)cc2)c1 [Linifanib (ABT-869), Linifanib] | 1.78 | 2.01 | 2.50 | 3.17 | – | – | – | – |
| O=C(O)[C@]1(Cc2cccc(Nc3nccs3)n2)CC[C@@H](Oc2cccc(Cl)c2F)CC1 [MK-5108 (VX-689)] | 2.42 | 2.35 | 2.17 | 2.01 | – | – | – | – |
| COc1ccc2[nH]c([S+]([O-])Cc3ncc(C)c(OC)c3C)nc2c1 (centres unmarked) [Omeprazole] | – | – | – | – | – | – | – | 1.09 Log2 |
| COc1cc2c(cc1OC)-c1c(OC)c(OC)cc3ccnc(c13)C2=O [Oxoglaucine] | – | – | – | – | – | – | – | 0.83 Log2 |
| CNC(=O)c1ccccc1Nc1cc(Nc2ccc(N3CCOCC3)cc2OC)ncc1C(F)(F)F [PND-1186] | – | – | – | – | – | – | – | 0.90 Log2 |
| COc1ccc(Cl)c(Nc2nc3ccccc3nc2NS(=O)(=O)c2cccc(NC(=O)C(C)(C)N)c2)c1 [Pilaralisib (XL147), Pilaralisib] | 1.95 | 1.75 | 2.28 | 2.21 | – | – | 0.2606 | – |
| CCc1ccc(CCOc2ccc(CC3SC(=O)NC3=O)cc2)nc1 (centres unmarked) [Pioglitazone HCl] | 2.21 | 2.27 | 1.94 | 1.86 | – | – | – | – |
| CC(C)(C(=O)NCC(F)(F)C(F)(F)F)C(=O)N[C@@H]1C(=O)Nc2ccccc2-c2ccccc21 [RO4929097] | – | – | – | – | – | – | – | 1.06 Log2 |
| CNC(=O)c1cc(Oc2ccc(NC(=O)Nc3ccc(Cl)c(C(F)(F)F)c3)c(F)c2)ccn1 [Regorafenib (BAY 73-4506)] | 2.05 | 1.92 | 2.31 | 2.77 | – | – | – | – |
| CCCn1c(=O)c2[nH]c(C34CC5CC(CC3C5)C4)nc2n(CCC)c1=O [Rolofylline (KW-3902), Rolofylline] | – | – | – | – | – | – | – | 0.66 Log2 |
| CC(C)[C@H](O)C(=O)N[C@@H](C)C(=O)N[C@@H]1C(=O)N(C)CCc2ccccc21 [Semagacestat] | – | – | – | – | – | – | – | 1.01 Log2 |
| CCC(=O)N1CCN(c2ccc(-n3c(=O)ccc4cnc5ccc(-c6cnc7ccccc7c6)cc5c43)cc2C(F)(F)F)CC1 [torin1] | – | – | 1.87 | 3.65 | 1.34 | 1.79 | – | – |
| BAM7 | – | – | – | – | – | – | – | 1.66 Log2 |
| Pifithrin-a | – | – | – | – | – | – | – | 1.44 Log2 |
| meBIO | – | – | – | – | – | – | – | 1.98 Log2 |
| Wnt3a: FRIZZLED activator (protein, UniProt P56704 19-352, looked up) Protein Wnt-3a: SYPIWWSLAVGPQYSSLGSQPILCASIPGLVPKQLRFCRNYVEIMPSVAEGIKIGIQECQHQFRGRRWNCTTVHDSLAIFGPVLDKATRESAFVHAIASAGVAFAVTRSCAEGTAAICGCSSRHQGSPGKGWKWGGCSEDIEFGGMVSREFADARENRPDARSAMNRHNNEAGRQAIASHMHLKCKCHGLSGSCEVKTCWWSQPDFRAIGDFLKDKYDSASEMVVEKHRESRGWVETLRPRYTYFKVPTERDLVYYEASPNFCEPNPETGSFGTRDRTCNVSSHGIDGCDLLCCGRGHNARAERRREKCRCVFHWCCYVSCQECTRVYDVHTCK | – | – | – | – | – | – | – | 0.59 Log2 |
| Anti mullerian hormone: TGF-beta activator (protein, UniProt P03971 452-560, looked up) Muellerian-inhibiting factor: SAGATAADGPCALRELSVDLRAERSVLIPETYQANNCQGVCGWPQSDRNPRYGNHVVLLLKMQVRGAALARPPCCVPTAYAGKLLISLSEERISAHHVPNMVATECGCR | – | – | – | – | – | – | – | 0.59 Log2 |
